In US7541466B2, “Tetrahydroisoquinoline derivatives for treating protein trafficking diseases” (Genzyme Corporation, priority 2003, dated 2009):

Legend:
ΔF508 CFTR = biological target: T1, ΔF508 CFTR (Homo sapiens, UniProt P13569, DEL508-508); test: MQAE chloride transport assay in C127 cells expressing ΔF508 CFTR; type: cell-based, murine; details: for Emax: C127, plateau level in activity at high compound concentration, read-out: % of Maximal Response; for EC50: chloride transport activity, MQAE; for % Maximal Response @ 1.25 μM: limiting concentration 1.25 μM
T1 construct: expressed in transfected cells
T1 sequence (P13569 with tags, fused parts or gaps DEL508-508): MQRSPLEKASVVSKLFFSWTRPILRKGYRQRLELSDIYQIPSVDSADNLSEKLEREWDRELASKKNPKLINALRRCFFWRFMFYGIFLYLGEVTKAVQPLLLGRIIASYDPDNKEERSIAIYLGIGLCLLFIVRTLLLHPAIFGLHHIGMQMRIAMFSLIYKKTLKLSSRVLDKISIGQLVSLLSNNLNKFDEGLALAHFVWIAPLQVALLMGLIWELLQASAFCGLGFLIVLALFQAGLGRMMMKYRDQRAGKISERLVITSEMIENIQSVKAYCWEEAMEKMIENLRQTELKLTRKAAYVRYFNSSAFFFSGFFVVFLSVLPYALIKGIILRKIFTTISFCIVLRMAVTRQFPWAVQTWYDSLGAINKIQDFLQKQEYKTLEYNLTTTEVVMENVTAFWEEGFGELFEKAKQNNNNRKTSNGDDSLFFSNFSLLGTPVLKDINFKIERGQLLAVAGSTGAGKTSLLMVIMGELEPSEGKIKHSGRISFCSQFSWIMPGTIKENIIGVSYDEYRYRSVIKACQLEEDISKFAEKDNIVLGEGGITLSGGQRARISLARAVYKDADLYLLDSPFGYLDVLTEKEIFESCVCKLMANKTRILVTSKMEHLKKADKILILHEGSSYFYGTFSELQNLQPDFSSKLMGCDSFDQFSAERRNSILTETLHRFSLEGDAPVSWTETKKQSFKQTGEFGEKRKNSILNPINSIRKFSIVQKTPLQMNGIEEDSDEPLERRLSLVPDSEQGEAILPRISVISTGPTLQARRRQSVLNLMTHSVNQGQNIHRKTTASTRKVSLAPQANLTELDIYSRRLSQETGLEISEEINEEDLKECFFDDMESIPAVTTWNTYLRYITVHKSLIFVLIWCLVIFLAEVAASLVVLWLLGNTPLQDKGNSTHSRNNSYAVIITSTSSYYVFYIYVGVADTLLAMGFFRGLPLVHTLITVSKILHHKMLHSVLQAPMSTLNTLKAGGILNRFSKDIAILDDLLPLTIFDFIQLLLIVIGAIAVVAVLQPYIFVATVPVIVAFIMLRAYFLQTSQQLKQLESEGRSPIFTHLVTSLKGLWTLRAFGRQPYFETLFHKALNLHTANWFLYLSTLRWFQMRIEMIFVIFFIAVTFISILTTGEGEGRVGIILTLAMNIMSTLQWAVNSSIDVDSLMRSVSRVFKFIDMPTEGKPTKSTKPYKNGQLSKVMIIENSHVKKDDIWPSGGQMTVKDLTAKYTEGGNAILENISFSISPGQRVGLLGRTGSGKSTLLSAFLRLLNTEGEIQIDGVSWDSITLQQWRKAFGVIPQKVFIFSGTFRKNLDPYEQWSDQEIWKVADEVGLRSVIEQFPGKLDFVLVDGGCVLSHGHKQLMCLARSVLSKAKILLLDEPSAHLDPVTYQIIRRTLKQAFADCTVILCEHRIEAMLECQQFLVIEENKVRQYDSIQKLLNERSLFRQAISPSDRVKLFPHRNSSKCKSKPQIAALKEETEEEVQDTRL
Method: C127 cells are a murine mammary epithelial cell line obtained from ATCC (#CRL 1616, American Type Culture Collection, Manassas, Va.). C127 cells were transfected with a bovine papilloma virus-based eukaryotic expression vector containing genes for ΔF508 CFTR and neomycin resistance whose expression was driven by a metallothionein promoter. Clonal cell populations resistant to G418 and positive for staining with anti-CFTR antibody were identified.
C127 cells expressing ΔF508 CFTR were grown in microtiter plates in DMEM (Dulbecco's Modified Eagle Medium, Hyclone, Logan, Utah) supplemented with fetal bovine serum, antibiotics, and glutamine in a 37° C., 5% CO2 atmosphere. Once confluent, the cells were loaded overnight with the disclosed compounds and a fluorescent dye sensitive to chloride ion concentration, N-(ethoxycarbonylmethyl)-6-methoxy quinolinium bromide (MQAE) (Verkman, Am. J. Physiol. 259 C375-C388 (1990)).
The following day, cells were washed with chloride-containing buffer to remove extracellular MQAE and to quench intracellular MQAE fluorescence. Chloride buffer was flicked out and replaced with nitrate buffer with added forskolin and IBMX (isobutylmethylxanthine) to stimulate CFTR activity. […] Buffers were adjusted to pH 7.4 and contained: 10 mM HEPES (N-2-Hydroxyethylpiperazine-N′-2-ethanesulfonic acid), 2.4 mM K2HPO4, 0.6 mM KH2PO4, 1.0 mM CaSO4, 1.0 mM MgSO4, 150 mM NaCl or NaNO3, and 25 mM glucose.
The increase in MQAE fluorescence as a function of time was followed using 360 nm excitation and 460 nm emission wavelengths. Fluorescence increased as chloride flowed out of cells through CFTR and the rate of increase in fluorescence over the first five minutes was taken as a measure of chloride transport activity.
Cells were treated with mixtures of up to 100 compounds per well for ca. 18 hours before the assay for chloride transport activity. […] Dose-response curves were generated and compounds were ranked based on their EC50 values and maximal responses (the plateau level in activity at high compound concentration, as a percentage of the low temperature response).

[1] = tested on: wild-type C57black6/J mice; details: female wild-type mice; 4 g/kg/day dose for 2 days; previously measured; cited from earlier work
[2] = as a percentage of the low temperature response
[3] = percentage of low temperature response, C127 ΔF508 CFTR cells

Emax (ΔF508 CFTR; [2]) [%]	EC50 (ΔF508 CFTR; C127 ΔF508 CFTR cells) [nM]	SMILES	further results
74	–	CCCCCc1ccc(NC(=O)C2Cc3ccccc3CN2C(=O)c2cccc(Oc3ccccc3)c2)cc1 (racemic) [Compound 87]	–
80	150	CCCC(=O)N(C)c1ccc(NC(=O)C2Cc3ccccc3CN2C(=O)c2cccc(Oc3ccccc3)c2)cc1 (racemic) [Compound 95, (±)-2-(3-Phenoxybenzoyl)-1,2,3,4-tetrahydroisoquinoline-3-carboxylic acid[4-(butyrylmethylamino)-phenyl]amide]	–
59	430	O=C(Nc1nccs1)C1Cc2ccccc2CN1C(=O)c1cccc(Oc2ccccc2)c1 (racemic) [Compound 100]	–
79	–	O=C(Nc1ccc(Cl)cc1)C1Cc2ccccc2CN1C(=O)c1cccc(Oc2ccccc2)c1 (racemic) [Compound 1]	–
65	67	COc1ccc(C(=O)N2Cc3ccccc3CC2C(=O)Nc2ccc(Cl)cc2)cc1Oc1ccccc1 (racemic) [Compound 17]	–
66	59	CCCCCCN(C(C)=O)c1ccc(NC(=O)C2Cc3ccccc3CN2C(=O)c2cccc(Oc3ccccc3)c2)cc1 (racemic) [Compound 90, (±)-2-(3-Phenoxybenzoyl)-1,2,3,4-tetrahydroisoquinoline-3-carboxylic acid[4-(acetylhexylamino)phenyl]amide]	–
71	39	CCCCCc1ccc(NC(=O)[C@@H]2Cc3ccccc3CN2C(=O)c2cccc(Oc3ccc(OC)cc3)c2)cc1 [Compound 112]	–
72	59	CCCCCc1ccc(NC(=O)[C@@H]2Cc3ccccc3CN2C(=O)c2cccc(OCc3ccccc3)c2)cc1 [Compound 114]	–
30	350	CCC(C)c1ccc(NC(=O)C2Cc3ccccc3CN2C(=O)c2cccc(Oc3ccccc3)c2)cc1 (racemic) [Compound 77]	–
85	5.9	CCCCCc1ccc(NC(=O)[C@@H]2Cc3ccccc3CN2C(=O)c2ccc(C)c(OC(C)C)c2)cc1 [Compound 143]	–
70	–	CCCCN(C(C)=O)c1ccc(NC(=O)C2Cc3ccccc3CN2C(=O)c2cccc(Oc3ccccc3)c2)cc1 (racemic) [Compound 102]	–
64	400	COc1ccc(NC(=O)[C@@H]2Cc3ccccc3CN2C(=O)c2cc(OC3CCCCC3)ccn2)cn1 [Compound 110]	–
54	–	CCCCCc1ccc(NC(=O)[C@@H]2Cc3ccccc3CN2C(=O)c2cccc(Oc3ccccc3)c2)cn1 [Compound 107, (S)-2-(3-Phenoxybenzoyl)-1,2,3,4-tetrahydroisoquinoline-3-carboxylic acid(6-pentylpyridin-3-yl)amide]	–
–	150	CC1c2ccccc2CN(C(=O)c2cccc(Oc3ccccc3)c2)C1C(=O)Nc1ccc(Cl)cc1 (single isomer, unassigned) [Compound 19]	% of Maximal Response (ΔF508 CFTR; plateau level in activity at high compound concentration, as a percentage of the low temperature response): 69%
28	1240	O=C(Nc1ccc(Cl)cc1)C1Cc2ccc(O)cc2CN1C(=O)c1cccc(Oc2ccccc2)c1 (racemic) [Compound 20]	–
91	69	CCCCCc1ccc(NC(=O)C2Cc3ccccc3CN2C(=O)c2cccc(OCc3ccccc3)c2)cc1 (racemic) [Compound 113]	–
85	220	O=C(Nc1ccc(Cl)cc1)C1Cc2ccccc2CN1C(=O)c1cccc(OCc2ccccc2)c1 (single isomer, unassigned; (+)) [Compound 14, (+)-2-(3-Benzyloxybenzoyl)-1,2,3,4-tetrahydroisoquinoline-3-carboxylic acid(4-chlorophenyl)amide]	–
–	–	O=C(Nc1ccc(Cl)cc1)C1Cc2ccccc2CN1C(=O)c1ccc2ccccc2c1 (racemic) [Compound 22, (±)-2-(Naphthalene-2-carbonyl)-1,2,3,4-tetrahydroisoquinoline-3-carboxylic acid(4-chlorophenyl)amide]	% Maximal Response @ 1.25 μM (ΔF508 CFTR; [3]): 36%
76	–	CCCCN(C(C)=O)c1ccc(NC(=O)[C@@H]2Cc3ccccc3CN2C(=O)c2cccc(Oc3ccccc3)c2)cc1 [Compound 103]	–
79	–	CCCCCc1ccc(NC(=O)[C@@H]2Cc3ccccc3CN2C(=O)c2cc(Oc3ccccc3)ccn2)cc1 [Compound 118]	–

Emax (ΔF508 CFTR; [2]) [%]	EC50 (ΔF508 CFTR; C127 ΔF508 CFTR cells) [nM]	SMILES	further results
73	230	CCc1ccc(NC(=O)C2Cc3ccccc3CN2C(=O)c2cccc(Oc3ccccc3)c2)cc1 (racemic) [Compound 79]	–
67	93	CCCCCc1ccc(NC(=O)[C@@H]2Cc3ccccc3CN2C(=O)c2cc(OC)c(OC)c(OC)c2)cc1 [Compound 138]	–
88	18	CCCCCc1ccc(NC(=O)[C@@H]2Cc3ccccc3CN2C(=O)c2ccc(OC)c(OCc3ccccc3)c2)cc1 [Compound 116]	–
77	250	Cc1ccc(Oc2cccc(C(=O)N3Cc4ccccc4CC3C(=O)Nc3ccc(Cl)cc3)c2)cc1 (racemic) [Compound 7]	–
–	–	O=C(NCCc1ccc(Br)cc1)C1Cc2ccccc2CN1C(=O)c1cccc(Oc2ccccc2)c1 (racemic) [Compound 73, (±)-2-(3-Phenoxybenzoyl)-1,2,3,4-tetrahydroisoquinoline-3-carboxylic acid[2-(4-bromophenyl)-ethyl]amide]	% Maximal Response @ 1.25 μM (ΔF508 CFTR; [3]): 34%
83	10	CCCCCc1ccc(NC(=O)[C@@H]2Cc3ccccc3CN2C(=O)c2cccc(OC(C)(C)C)c2)cc1 [Compound 122]	–
70	270	Cc1ccc(NC(=O)C2Cc3ccccc3CN2C(=O)c2cccc(Oc3ccccc3)c2)cc1 (racemic) [Compound 67]	Percent of low-temperature response at 1.25 µM (ΔF508 CFTR; C127, limiting concentration 1.25 μM, percentage of low temperature response, C127 ΔF508 CFTR cells, read-out: % Maximal Response @ 1.25 μM): 85%
74	–	CCCCCc1ccc(NC(=O)[C@@H]2Cc3ccccc3CN2C(=O)c2ccc(OC)c(Oc3ccccc3)c2)cc1 [Compound 115]	–
36	400	O=C(Nc1ccc(C2CCCCC2)cc1)C1Cc2ccccc2CN1C(=O)c1cccc(Oc2ccccc2)c1 (racemic) [Compound 76]	–
73	150	CCOc1cccc(NC(=O)[C@@H]2Cc3ccccc3CN2C(=O)c2cc(OC3CCCCC3)ccn2)c1 [Compound 111]	–
28	170	CCCCCc1ccc(NC(=O)C2Cc3c(C)cccc3CN2C(=O)c2cccc(Oc3ccccc3)c2)cc1 (racemic) [Compound 21]	–
59	87	CC1c2ccccc2CN(C(=O)c2cccc(Oc3ccccc3)c2)C1C(=O)Nc1ccc(Cl)cc1 (single isomer, unassigned) [Compound 18]	–
69	180	CCCCCc1ccc(NC(=O)[C@@H]2Cc3ccccc3CN2C(=O)c2cc(OCCN3CCOCC3)cc(OC(C)C)c2)cc1 [Compound 137]	–
88	8	CCCCCc1ccc(NC(=O)[C@@H]2Cc3ccccc3CN2C(=O)c2cccc(OC(C)C(C)C)c2)cc1 (stereo partly drawn) [Compound 142]	–
–	–	C[N+](C)(C)[O-] [trimethylamine oxide, trimethylamine-N-oxide]	increase of forskolin response in RPD [1]: 7.5 mV
95	280	CC(C)(C)c1ccc(Oc2cccc(C(=O)N3Cc4ccccc4CC3C(=O)Nc3ccc(Cl)cc3)c2)cc1 (racemic) [Compound 8]	–
70	14	CCCCCc1ccc(NC(=O)[C@@H]2Cc3ccccc3CN2C(=O)c2cc(Cl)cc(Cl)c2)cc1 [Compound 133]	–
70	270	COc1ccc(NC(=O)C2Cc3ccccc3CN2C(=O)c2cccc(Oc3ccccc3)c2)cn1 (racemic) [Compound 99]	–
32	41	CCCCCc1ccc(NC(=O)[C@@H]2Cc3ccccc3CN2C(=O)c2cc(Oc3cccnc3)ccn2)cc1 [Compound 147]	–
